From patent publication US9409884B2 (Rigel Pharmaceuticals, Inc., priority 2012, dated 2016) come the findings set out here.

A value given as a limit tells only on which side of the number the result lay.

The first assay has as its target AMPK. Briefly: AMPK activation, enzyme-linked immunosorbent assay. It is filed as biochemical. Conditions: Table 8, compounds of Table 1. The gist of the method: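 AMPK activation by test compounds was measured by enzyme-linked immunosorbent assay.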
For the compound `FC(F)(F)c1ccc(N2CCC(Oc3ccc4c(c3)CCC4NC3CCNCC3)CC2)cc1` (stereo not drawn) [Compound 1-157, N-(5-(1-(4-(trifluoromethyl)phenyl)piperidin-4-yloxy)-2,3-dihydro-1H-inden-1-yl)piperidin-4-amine], the concentration for a half-maximal effect (EC50) lay in the range of 1000 to 5000 nM.

As to `O=C(NC1CCN(Cc2ccc(OC(F)(F)F)cc2)CC1)c1cc2cc(O[C@@H]3CCN(Cc4ccc(OC(F)(F)F)cc4)C[C@H]3F)ccc2o1` [Compound 1-173, 5-((3,4-trans)-3-fluoro-1-(4-(trifluoromethoxy)benzyl)piperidin-4-yloxy)-N-(1-(4-(trifluoromethoxy)benzyl)piperidin-4-yl)benzofuran-2-carboxamide], the EC50 was less than 100 nM.

`O=S(=O)(NC1CCNCC1)c1ccc(OC2CCN(c3ccc(C(F)(F)F)cc3)CC2)nc1` [Compound 1-55, N-(piperidin-4-yl)-6-(1-(4-(trifluoromethyl)phenyl)piperidin-4-yloxy)pyridine-3-sulfonamide] yielded an EC50 of 1000 to 5000 nM.

For the compound `O=C(NC1CCN(Cc2cccnc2)CC1)c1cc2ccc(OC3CCN(c4ccc(OC(F)(F)F)cc4)CC3)cc2o1` [Compound 1-95, N-(1-(pyridin-3-ylmethyl)piperidin-4-yl)-6-(1-(4-(trifluoromethoxy)phenyl)piperidin-4-yloxy)benzofuran-2-carboxamide], the 50% effective concentration (EC50) was less than 100 nM.

Compound `N#Cc1ccc(CN2CCC(NC(=O)c3cc4cc(O[C@@H]5CCN(Cc6ccc(OC(F)(F)F)cc6)C[C@H]5F)ccc4o3)CC2)cc1` [Compound 1-168, N-(1-(4-cyanobenzyl)piperidin-4-yl)-5-((3,4-trans)-3-fluoro-1-(4-(trifluoromethoxy)benzyl)piperidin-4-yloxy)benzofuran-2-carboxamide] showed an EC50 of less than 100 nM.

Turning to `O=C(N[C@@H]1CCN(Cc2ccccn2)C1)c1cc2cc(OC3CCN(c4ccc(C(F)(F)F)cc4)CC3)ccc2o1` [Compound 1-124, (R)-N-(1-(pyridin-2-ylmethyl)pyrrolidin-3-yl)-5-(1-(4-(trifluoromethyl)phenyl)piperidin-4-yloxy)benzofuran-2-carboxamide], the half-maximal effective concentration (EC50) lay in the range of 1000 to 5000 nM.

`N#Cc1ccc(CN2CCC(Oc3ccc4oc(C(=O)NC5CCN(Cc6ccccc6)CC5)cc4c3)CC2)cc1` [Compound 1-70, N-(1-benzylpiperidin-4-yl)-5-(1-(4-cyanobenzyl)piperidin-4-yloxy)benzofuran-2-carboxamide] gave a 50% effective concentration (EC50) of less than 100 nM.

Staying with this assay, now noted: Table 9, compounds of Table 2.
For `O=C(NC1CCN(Cc2ccncc2)CC1)c1ccc2[nH]c3c(c2c1)CN(Cc1ccc(C(F)(F)F)cc1)CC3` [Compound 2-50, N-(1-(pyridin-4-ylmethyl)piperidin-4-yl)-2-(4-(trifluoromethyl)benzyl)-2,3,4,5-tetrahydro-1H-pyrido[4,3-b]indole-8-carboxamide], the half-maximal effective concentration (EC50) was less than 500 nM.

Still in this assay, the particulars now being: Table 10, compounds of Table 3.
In turn, `NC(=O)c1ccc(CN2CC3CC2CN3C(=O)c2nc3ccc(OC4CCN(c5ccc(C(F)(F)F)cc5)CC4)cc3o2)cc1` (stereo not drawn) [Compound 3-9, 4-((5-(6-(1-(4-(trifluoromethyl)phenyl)piperidin-4-yloxy)benzo[d]oxazole-2-carbonyl)-2,5-diazabicyclo[2.2.1]heptan-2-yl)methyl)benzamide] registered an EC50 of 100 to 1000 nM.

The assay is the same for the next values; noted with them: Table 11, compounds of Table 4.
`N#Cc1ccc(CN2CC[C@H](NC(=O)c3ccc(C(=O)N4CCN(c5ccc(Cl)cc5)CC4)cn3)C2)cc1` [Compound 4-6, (S)-5-(4-(4-chlorophenyl)piperazine-1-carbonyl)-N-(1-(4-cyanobenzyl)pyrrolidin-3-yl)picolinamide] came in with a concentration giving a half-maximal response (EC50) of 500 to 1000 nM.

Staying with this assay, now noted: Table 12, compounds of Table 5.
Consider `O=C(NC1CCN(Cc2ccccc2)CC1)c1ccc(OC2CCN(Cc3ccc(F)c(F)c3)CC2)c(F)c1` [Compound 5-69, N-(1-benzylpiperidin-4-yl)-4-(1-(3,4-difluorobenzyl)piperidin-4-yloxy)-3-fluorobenzamide], for which the EC50 is less than 1000 nM.

Compound `O=C(NC1CCN(Cc2ccccc2)CC1)c1cc(Cl)c(OC2CCN(Cc3cccc(C(F)(F)F)c3)CC2)c(Cl)c1` [Compound 5-62, N-(1-benzylpiperidin-4-yl)-3,5-dichloro-4-(1-(3-(trifluoromethyl)benzyl)piperidin-4-yloxy)benzamide] returned an EC50 of less than 1000 nM.

As to `Cc1ccc(CN2CCC(Oc3ccc(C(=O)NC4CCN(Cc5ccc(Cl)cc5)CC4)cc3F)CC2)cc1` [Compound 5-73, N-(1-(4-chlorobenzyl)piperidin-4-yl)-3-fluoro-4-(1-(4-methylbenzyl)piperidin-4-yloxy)benzamide], the EC50 is less than 1000 nM.

Consider `N#Cc1ccc(N2CCC(Oc3ccc(C(=O)NC4CCN(Cc5ccncc5)CC4)cc3F)CC2)cc1` [Compound 5-44, 4-(1-(4-cyanophenyl)piperidin-4-yloxy)-3-fluoro-N-(1-(pyridin-4-ylmethyl)piperidin-4-yl)benzamide], for which the EC50 was less than 1000 nM.

`N#Cc1ccc(CN2CCC(NC(=O)c3cccc(OC4CCN(Cc5cnn(-c6ccc(F)cc6)c5)CC4)c3)CC2)cc1` [Compound 5-122, N-(1-(4-cyanobenzyl)piperidin-4-yl)-3-(1-((1-(4-fluorophenyl)-1H-pyrazol-4-yl)methyl)piperidin-4-yloxy)benzamide] showed a half-maximal effective concentration (EC50) of less than 1000 nM.

Staying with this assay, now noted: Table 13, compounds of Table 6.
`N#Cc1ccc(CN2CCC(NC(=O)c3cc4cc(NC(=O)C5CCN(Cc6cnn(-c7ccccn7)c6)CC5)ccc4o3)CC2)cc1` [Compound 6-41, N-(2-(1-(4-cyanobenzyl)piperidin-4-ylcarbamoyl)benzofuran-5-yl)-1-((1-(pyridin-2-yl)-1H-pyrazol-4-yl)methyl)piperidine-4-carboxamide] registered a concentration for a half-maximal effect (EC50) of 1000 to 10000 nM.

The assay is the same for the next values; noted with them: Table 14, compounds of Table 7.
Compound `COc1ccc(C(=O)C2CCN(C(=O)c3ncc(C(=O)NC4CCN(Cc5ccc(C#N)cc5)CC4)cc3CCCNC(=O)CCOCCOCCOCCOCCNC(=O)CCCC[C@@H]3SC[C@@H]4NC(=O)N[C@@H]43)CC2)cc1` [Compound 7-19, N-(1-(4-cyanobenzyl)piperidin-4-yl)-5-(5,21-dioxo-25-((3aS,4S,6aR)-2-oxohexahydro-1H-thieno[3,4-d]imidazol-4-yl)-8,11,14,17-tetraoxa-4,20-diazapentacosyl)-6-(4-(4-methoxybenzoyl)piperidine-1-carbonyl)nicotinamide] came in with a concentration giving a half-maximal response (EC50) of 10000 to 20000 nM.

The compound `COc1ccc(CN2CCC(NC(=O)c3ccc(C(=O)N4CCC(C(=O)c5ccc(OC)cc5)CC4)nc3)[C@@H](C(F)(F)F)C2)cc1` (stereo partly drawn) [Compound 7-102, 6-(4-(4-methoxybenzoyl)piperidine-1-carbonyl)-N-((3,4-cis)-1-(4-methoxybenzyl)-3 - (trifluoromethyl)piperidin-4-yl)nicotinamide] returned a concentration for a half-maximal effect (EC50) of less than 1000 nM.

In turn, `Cc1nc2cc(OC3CCN(C(=O)c4ccc(C(=O)NC5CCN(Cc6ccc(C#N)cc6)CC5)cn4)CC3)ccc2s1` [Compound 7-22, N-(1-(4-cyanobenzyl)piperidin-4-yl)-6-(4-(2-methylbenzo[d]thiazol-5-yloxy)piperidine-1-carbonyl)nicotinamide] yielded an EC50 of less than 1000 nM.

The compound `COc1ccc(C(=O)C2CCN(C(=O)c3cc(C)c(C(=O)NC4CCN(Cc5ccc(C#N)cc5)CC4)cn3)CC2)cc1` [Compound 7-105, N-(1-(4-cyanobenzyl)piperidin-4-yl)-6-(4-(4-methoxybenzoyl)piperidine-1-carbonyl)-4-methylnicotinamide] showed a 50% effective concentration (EC50) of less than 1000 nM.

`COc1ccc(C(=O)C2CCN(C(=O)c3ccc(C(=O)NC4CCN(Cc5ccc(OC)c(C#N)c5)C[C@H]4F)cn3)CC2)cc1` (stereo partly drawn) [Compound 7-55, N-((3,4-trans)-1-(3-cyano-4-methoxybenzyl)-3-fluoropiperidin-4-yl)-6-(4-(4-methoxybenzoyl)piperidine-1-carbonyl)nicotinamide] gave an EC50 of 1000 to 10000 nM.
